{
  "source": "BindingDB's records for doi:10.1016/s0960-894x(98)00722-7",
  "about": "(Institut De Chimie Organique De L'Universit&#233, 1999)",
  "assay": "Inhibitory activity against rice Alpha-galactosidase",
  "data": [
    {"smiles": "OCC1=NO[C@H]2[C@H](O)C(O)O[C@@H]12", "note": "(stereo partly drawn) [(3aS,6S,6aS)-3-Hydroxymethyl-3a,5,6,6a-tetrahydro-furo[2,3-d]isoxazole-5,6-diol]", "values": [
      {"measurement": "IC50", "result": 805, "unit": "µM"}
    ]}
  ]
}
